For three compounds, refractive index results are on record in the NIST ThermoML archive (doi:10.1021/acs.jced.5b01102).

SMILES strings stand for the structures. ± gives the expanded uncertainty stated by the source.

The series is described as follows: refractive index (Na D-line) (dimensionless). As to conditions: 298.15 K; 101.33 kPa; Liquid; Standard Abbe refractometry.
Regarding `CCO` [ethanol], the refractive index (in general, a measure of how strongly the sample bends light) came out at 1.35947 ± 0.00033.
As to `CO` [methanol], the refractive index was found to be 1.32655 ± 0.00031.
Take `O` [water]: the refractive index was 1.33251 ± 0.00031.
